Results published in patent US11976054B2, “Amide derivative and preparation method therefore and use thereof in medicine” (Chengdu Baiyu Pharmaceutical Co., Ltd., priority 2019, dated 2024).

tested on: Human monocyte cell line THP-1; test: Detection of THP-1 cell pyroptosis (Caspase-Glo 1 Inflammasome Assay); type: cell-based; conditions: Homo sapiens, THP-1, THP-1 pyroptosis, 20 nM PMA 48 h, 1 μg/mL LPS, compound 3 h
Procedure: Human monocyte cell line THP-1 (ATCC® TB-202TM) was cultured in RPMI-1640 culture medium containing […], 1 mM pyruvic acid, 0.05 mM β-mercaptoethanol and 10% double antibody under the culture conditions of 37° C. and […].
Cell counting was performed, THP-1 cells were seeded into a 96-well plate at 50000 per well, and 20 nM PMA was added for inducing at 37° C./5% CO2 for 48 h. The culture medium was then discarded, and 100 μL of serum-free RPMI-1640 medium containing 1 μg/mL LPS was added. 5 μL of compound or solvent control was added and 3-fold diluted in gradient from a maximum concentration of 10 μM, and 10 gradient concentrations were set. The mixtures were incubated at 37° C./5% CO2 for 3 h. After the incubation, the mixtures were centrifuged at 300 g for 5 min, and the culture medium was discarded. Pyroptosis assay was performed according to specific steps described in instructions of Caspase-Glo® 1 Inflammasome Assay kit. IC50 was calculated using GraphPad Prism7.0 software.

First: Cc1cc2c(c(NC(=O)NS(=O)(=O)c3cc(C(C)(C)O)co3)c1[C@H](C)C1CC1)CCC2 [Compound 90, (R)-N-((5-(1-cyclopropylethyl)-6-methyl-2,3-dihydro-1H-inden-4-yl)carbamoyl)-4-(2-hydroxypropan-2-yl)furan-2-sulfonamide]
Second: C=C(c1c(C)cc2c(c1NC(=O)NS(=O)(=O)c1cc(C(C)(C)O)co1)CCC2)C1CC1 [Compound 40, N-((5-(1-cyclopropylvinyl)-6-methyl-2,3-dihydro-1H-inden-4-yl)carbamoyl)-4-(2-hydroxypropan-2-yl)furan-2-sulfonamide]
The IC50 of the first is lower: 100 to 500 nM for the first, 1000 to 5000 nM for the second. The first is the more potent here.

CC(C)(O)c1coc(S(=O)(=O)NC(=O)Nc2c(CC3CC3)ccc3c2CCC3)c1 [Compound 3, N-((5-(cyclopropylmethyl)-2,3-dihydro-1H-inden-4-yl)carbamoyl)-4-(2-hydroxypropan-2-yl)furan-2-sulfonamide] and CC(C)(O)c1coc(S(=O)(=O)NC(=O)Nc2c(CC3CCC3)ccc3c2CCC3)c1 [Compound 17, N-((5-(cyclobutylmethyl)-2,3-dihydro-1H-inden-4-yl)carbamoyl)-4-(2-hydroxypropan-2-yl)furan-2-sulfonamide] fall in the same range of IC50: 100 to 500 nM for the first, 100 to 500 nM for the second.

First: C[C@@H](c1cc(C#N)c2c(c1NC(=O)NS(=O)(=O)c1cc(C(C)(C)O)co1)CCC2)C1CC1 [Compound 45, (R)-N-((7-cyano-5-(1-cyclopropylethyl)-2,3-dihydro-1H-inden-4-yl)carbamoyl)-4-(2-hydroxypropan-2-yl)furan-2-sulfonamide]
Second: C[C@H](c1cc(C#N)c2c(c1NC(=O)NS(=O)(=O)c1cc(C(C)(C)O)co1)CCC2)C1CC1 [Compound 47, (S)-N-((7-cyano-5-(1-cyclopropylethyl)-2,3-dihydro-1H-inden-4-yl)carbamoyl)-4-(2-hydroxypropan-2-yl)furan-2-sulfonamide]
The IC50 of the first is lower: 100 to 500 nM for the first, 500 to 1000 nM for the second.

Compared with C[C@@H](c1ccc2c(c1NC(=O)NS(=O)(=O)c1cc(C(C)(C)O)co1)CC2)C1CC1 [Compound 37, (R)-N-((3-(1-cyclopropylethyl)bicyclo[4.2.0]octa-1(6),2,4-trien-2-yl)carbamoyl)-4-(2-hydroxypropan-2-yl)furan-2-sulfonamide], C[C@H](c1ccc2c(c1NC(=O)NS(=O)(=O)c1cc(C(C)(C)O)co1)CCC2)C1CCC1 [Compound 81, (S)-N-((5-(1-cyclobutylethyl)-2,3-dihydro-1H-inden-4-yl)carbamoyl)-4-(2-hydroxypropan-2-yl)furan-2-sulfonamide] is higher in IC50: 100 to 500 nM for the first, 1000 to 5000 nM for the second.

Compared with C[C@@H](c1ccc2c(c1NC(=O)NS(=O)(=O)c1ccc(C(C)(C)O)s1)CCC2)C1CC1 [Compound 58, (R)-N-((5-(1-cyclopropylethyl)-2,3-dihydro-1H-inden-4-yl)carbamoyl)-5-(2-hydroxypropan-2-yl)thiophene-2-sulfonamide], C[C@@H](c1ccc2c(c1NC(=O)NS(=O)(=O)c1sc(C(C)(C)O)cc1F)CCC2)C1CC1 [Compound 64, (R)-N-((5-(1-cyclopropylethyl)-2,3-dihydro-1H-inden-4-yl)carbamoyl)-3-fluoro-5-(2-hydroxypropan-2-yl)thiophene-2-sulfonamide] is lower in IC50: 1000 to 5000 nM for the first, 100 to 500 nM for the second. The second is the more potent here.

First: C[C@@H](c1ccc2c(c1NC(=O)NS(=O)(=O)c1ccc(C3(O)CCOCC3)s1)CCC2)C1CC1 [Compound 68]
Second: C[C@@H](c1ccc2c(c1NC(=O)NS(=O)(=O)c1cc(C(C)(C)O)co1)CCC2)C1CCCC1 [Compound 26, (R)-N-((5-(1-cyclopentylethyl)-2,3-dihydro-1H-inden-4-yl)carbamoyl)-4-(2-hydroxypropan-2-yl)furan-2-sulfonamide]
The IC50 of the first is lower: 100 to 500 nM for the first, 1000 to 5000 nM for the second. The first is the more potent here.

CC(c1ccc2c(c1NC(=O)NS(=N)(=O)c1cc(C(C)(C)O)co1)CCC2)C1CCC1 (stereo not drawn) [Compound 16, N-((5-(1-cyclobutylethyl)-2,3-dihydro-1H-inden-4-yl)carbamoyl)-4-(2-hydroxypropan-2-yl)furan-2-sulfonimidamide] and C[C@H](c1ccc2c(c1NC(=O)N[S@](=N)(=O)c1cc(C(C)(C)O)cs1)CCC2)C1CC1 [Compound 54-2] cannot be ordered by IC50: no more than 100 nM for the first, 100 to 500 nM for the second.

CC(C)c1cccc([C@H](C)C2CC2)c1NC(=O)NS(=O)(=O)c1cc(C(C)(C)O)co1 [Compound 72] and Cc1oc(S(=O)(=O)NC(=O)Nc2c([C@H](C)C3CC3)ccc3c2CCC3)cc1C(C)(C)O [Compound 22, (R)-N-((5-(1-cyclopropylethyl)-2,3-dihydro-1H-inden-4-yl)carbamoyl)-4-(2-hydroxypropan-2-yl)-5-methylfuran-2-sulfonamide] cannot be ordered by IC50: 100 to 500 nM for the first, no more than 100 nM for the second.

With C[C@@H](c1ccc2c(c1NC(=O)NS(=O)(=O)c1sc(C(C)(C)O)cc1C#N)CCC2)C1CC1 [Compound 62, (R)-3-cyano-N-((5-(1-cyclopropylethyl)-2,3-dihydro-1H-inden-4-yl)carbamoyl)-5-(2-hydroxypropan-2-yl)thiophene-2-sulfonamide] the IC50 was no more than 100 nM.

same assay, conditions: THP-1 pyroptosis, 20 nM PMA 48 h, 1 μg/mL LPS, compound 3 h

First: CC(C)(O)c1ncc(S(=N)(=O)NC(=O)Nc2c(CC3CCC3)ccc3c2CCC3)s1 (single isomer, unassigned) [Compound 19-1, RS- and SS-N-((5-(cyclobutylmethyl)-2,3-dihydro-1H-inden-4-yl)carbamoyl)-2-(2-hydroxypropan-2-yl)thiazole-5-sulfonimidamide]
Second: CC(C)(O)c1coc(S(=N)(=O)NC(=O)Nc2c(CC3CCC3)ccc3c2CC3)c1 (single isomer, unassigned) [Compound 34-1, RS- and SS-N-((3-(cyclobutylmethyl)bicyclo[4.2.0]octa-1(6),2,4-trien-2-yl)carbamoyl)-4-(2-hydroxypropan-2-yl)furan-2-sulfonimidamide]
The IC50 of the first is lower: 1000 to 5000 nM for the first, 5000 to 10000 nM for the second.

CC(C)c1cccc(C(C)C2CC2)c1NC(=O)NS(=N)(=O)c1cc(C(C)(C)O)co1 (racemic) [Compound 74-1, (RS, RC)- and (SS, RC)-N-((2-(1-cyclopropylethyl)-6-isopropylphenyl)carbamoyl)-4-(2-hydroxypropan-2-yl)furan-2-sulfonimidamide] and “(RS, RC)- and (SS, RC)-N-((5-(1-cyclopropylethyl)-2,3-dihydro-1H-inden-4-yl-7-d)carbamoyl)-4-(2-hydroxypropan-2-yl)furan-2-sulfonimidamide [Compound 31-1]” cannot be ordered by IC50: no more than 100 nM for the first, 100 to 500 nM for the second.

CC(C)c1cccc(CC2CCC2)c1NC(=O)NS(=N)(=O)c1cc(C(C)(C)O)co1 (single isomer, unassigned) [Compound 70-2, RS- and SS-N-((2-(cyclobutylmethyl)-6-isopropylphenyl)carbamoyl)-4-(2-hydroxypropan-2-yl)furan-2-sulfonimidamide] and CC(c1ccc2c(c1NC(=O)NS(=N)(=O)c1cc(C(C)(C)O)co1)CCC2)C1CC1 (racemic) [Compound 52-1, (RS, SC)- and (SS, SC)-N-((5-(1-cyclopropylethyl)-2,3-dihydro-1H-inden-4-yl)carbamoyl)-4-(2-hydroxypropan-2-yl)furan-2-sulfonimidamide] fall in the same range of IC50: 1000 to 5000 nM for the first, 1000 to 5000 nM for the second.

First: CC(C)c1cccc([C@@H](C)C2CC2)c1NC(=O)NS(=N)(=O)c1cc(C(C)(C)O)co1 (mixture of isomers) [Compound 73-2, (RS, SC) and (SS, SC)-N-((2-(1-cyclopropylethyl)-6-isopropylphenyl)carbamoyl)-4-(2-hydroxypropan-2-yl)furan-2-sulfonimidamide]
Second: CC(c1cc(C#N)c2c(c1NC(=O)NS(=N)(=O)c1cc(C(C)(C)O)co1)CCC2)C1CC1 (racemic) [Compound 46-1, (RS, RC)- and (SS, RC)-N-((7-cyano-5-(1-cyclopropylethyl)-2,3-dihydro-1H-inden-4-yl)carbamoyl)-4-(2-hydroxypropan-2-yl)furan-2-sulfonimidamide]
The IC50 of the first is higher: 1000 to 5000 nM for the first, 100 to 500 nM for the second.

CC(C)c1cccc([C@@H](C)C2CC2)c1NC(=O)NS(=N)(=O)c1cc(C(C)(C)O)co1 (mixture of isomers) [Compound 73-1, (RS, SC) and (SS, SC)-N-((2-(1-cyclopropylethyl)-6-isopropylphenyl)carbamoyl)-4-(2-hydroxypropan-2-yl)furan-2-sulfonimidamide] and Cc1oc(S(=N)(=O)NC(=O)Nc2c(C(C)C3CC3)ccc3c2CCC3)cc1C(C)(C)O (single isomer, unassigned) [Compound 24-1, RS- and SS-N-((5-(1-cyclopropylethyl)-2,3-dihydro-1H-inden-4-yl)carbamoyl)-4-(2-hydroxypropan-2-yl)-5-methylfuran-2-sulfonimidamide] cannot be ordered by IC50: no more than 100 nM for the first, 100 to 500 nM for the second.

CC(C)(O)c1ccc(S(=N)(=O)NC(=O)Nc2c(CC3CCC3)ccc3c2CCC3)s1 (racemic) [Compound 53-2, (RS)- and (SS)-N-((5-(cyclobutylmethyl)-2,3-dihydro-1H-inden-4-yl)carbamoyl)-5-(2-hydroxypropan-2-yl)thiophene-2-sulfonimidamide] and Cc1oc(S(=N)(=O)NC(=O)Nc2c(C(C)C3CC3)ccc3c2CCC3)cc1C(C)(C)O (racemic) [Compound 25-2, (RS, SC)- and (SS, SC)-N-((5-(1-cyclopropylethyl)-2,3-dihydro-1H-inden-4-yl)carbamoyl)-4-(2-hydroxypropan-2-yl)-5-methylfuran-2-sulfonimidamide] fall in the same range of IC50: 100 to 500 nM for the first, 100 to 500 nM for the second.

Cc1ccc(S(=N)(=O)NC(=O)Nc2c(C(C)C)cccc2C(C)C)cc1 (stereo not drawn) [Compound 92-2, RS- and SS-N-((2,6-diisopropylphenyl)carbamoyl)-4-methylbenzenesulfonimidamide, reference compound] was tested, and the IC50 was greater than 10000 nM.
